“And” between values parts separate entries of the source, which are not always exact repeats. Equal values may be shown once. Where a name gives a salt, the structure may show the parent alone. Read-outs that look alike come from different tables or passages of the source.
Columns and labels:
[1] = molecular target: T1, SARS CoV-2 M^pro (Severe acute respiratory syndrome coronavirus 2, UniProt P0DTD1); assay: biochemical; format: biochemical; conditions: for inhibition at 80 µM: read-out: Inhibition%(80μM); for result of retest over a concentration range: gradient concentrations
T1 construct: The main protease (M^pro) is a part of the polyprotein chain, also named 3C-like protease; SUMO (cleaved yes); His; made in house; host or cells: Escherichia coli BL21(DE3)

[2] = molecular target: T1, SARS CoV-2 M^pro; assay: nanoDSF thermal shift assay (TSA); format: binding; conditions: for △T: versus M^pro+DMSO; for Kd: x-intercept of linear regression of ΔTm on log10 of compound concentration, read-out: Kobs
[3] = molecular target: T1, SARS CoV-2 M^pro; assay: Surface plasmon resonance (SPR) binding to biotinylated M^pro
[4] = 0.02%(v/v) Triton X−100 in buffer

| Compound | Inhibition%(80μM) [1] | inhibition at 80 µM [1] | further results |
| --- | --- | --- | --- |
| CC(C)=CCC[C@]1(C)C=Cc2c(O)c3c(c(CC=C(C)C)c2O1)O[C@]12C(=C[C@@H]4C[C@H]1C(C)(C)O[C@@]2(C/C=C(/C)C(=O)O)C4=O)C3=O [Gambogic Acid] | 78.61% and 79.43% | 78.5% |  |
| O=C1O[C@H]2[C@@H]3OC(=O)c4cc(O)c(O)c(O)c4-c4c(cc(O)c(O)c4O)C(=O)OC[C@H]2O[C@@H](OC(=O)c2cc(O)c(O)c(O)c2)[C@@H]3OC(=O)c2cc(O)c(O)c3c2[C@@H]2C1=CC(=O)[C@](O)(O3)C2(O)O [Geraniin] | 70.07% and 71.11% | 71.6% |  |
| CCCCCC/C=C\CCCCCCCCCc1cccc(O)c1C(=O)O [Ginkgolic Acid C17:1] | 100.63% and 101.61% | 102% |  |
| Oc1cc(O)cc(/C=C/c2c(O)cccc2O)c1 [Gnetol] | 81.39% and 81.62% | 81.5% |  |
| O=C(O)CCc1ccc(O)c(O)c1 [Hydrocaffeic Acid] | 90.29% and 90.08% | 88.3% |  |
| O=c1oc2c(O)cc(O)cc2c2oc3cc(O)c(O)cc3c12 [Isodemethylwedelolacton] | 99.38% and 99.79% | 99.7% |  |
| C[C@@H]1O[C@@H](OC[C@H]2O[C@@H](OCCc3ccc(O)c(O)c3)[C@H](O)[C@@H](OC(=O)/C=C/c3ccc(O)c(O)c3)[C@@H]2O)[C@H](O)[C@H](O)[C@H]1O [Isoforsythiaside] | 100.44% and 101.30% | 100% |  |
| NCCCN(CCCCNCCCNC(=O)CCc1ccc(O)c(O)c1)C(=O)CCc1ccc(O)c(O)c1 [Kukoamine B] | 103.22% and 104.32% | 104% |  |
| O=c1c(O)c(-c2cc(O)c(O)c(O)c2)oc2cc(O)cc(O)c12 [Myricetin] | 90.18% and 90.28% | 90.6% |  |
| CCCCCCCCCCCCCC(=O)O [Myristic Acid] | 82.11% and 84.30% | 85% |  |
| CCCCCCCC/C=C\CCCCCCCCCCCCCC(=O)O [Nervonic Acid] | 89.75% and 93.14% | 93.6% |  |
| CCCCCCCC/C=C\CCCCCCCC(=O)O [Oleic Acid] | 104.37% and 103.27% | 104% |  |
| C/C=C1/[C@H](O[C@@H]2O[C@H](CO)[C@@H](O)[C@H](O)[C@H]2O)OC=C(C(=O)OC)[C@H]1CC(=O)OCCc1ccc(O)c(O)c1 [Oleuropein] | 97.72% | 96.6% |  |
| C=C1C(=O)[C@]23[C@H](O)[C@H]1CC[C@H]2[C@@]12CO[C@]3(O)[C@@H](O)[C@@H]1C(C)(C)CC[C@@H]2O [Oridonin] | 83.80% and 85.60% | 84.3% |  |
| CC(=O)/C=C/c1ccc(O)c(O)c1 [Osmundacetone] | 98.31% and 98.46% | 98.7% |  |
| CCCCCC/C=C\CCCCCCCC(=O)O [Palmitoleic Acid] | 103.78% and 102.80% | 103% |  |
| CCCCCCCCCCCCCCC(=O)O [Pentadecanoic Acid] | 92.58% and 91.46% | 92.3% |  |
| CCCCCCCCCCC/C=C\CCCCC(=O)O [Petroselinic Acid] | 105.29% and 103.73% | 104% |  |
| O=P(O)(O)O[C@H]1[C@H](OP(=O)(O)O)[C@@H](OP(=O)(O)O)[C@H](OP(=O)(O)O)[C@@H](OP(=O)(O)O)[C@H]1OP(=O)(O)O [Phytic Acid] | 97.45% and 98.02% | 97.6% |  |
| O=C(/C=C/c1ccc(O)c(O)c1)OC[C@H]1O[C@@H](OCCc2ccc(O)c(O)c2)[C@H](O)[C@@H](O[C@@H]2O[C@H](CO)[C@@H](O)[C@H](O)[C@H]2O)[C@@H]1O [Plantainoside D] | 99.79% and 99.90% | 101% |  |
| CC1=CC(=O)c2c(O)cccc2C1=O [Plumbagin] | 74.76% and 75.47% | 70.2% |  |
| CCCOC(=O)c1cc(O)c(O)c(O)c1 [Propyl Gallate] | 78.61% and 79.43% | 78.5% |  |

| Compound | Inhibition%(80μM) [1] | inhibition at 80 µM [1] | further results |
| --- | --- | --- | --- |
| O=C(/C=C/c1ccc(O)c(O)c1)O[C@H](Cc1ccc(O)c(O)c1)C(=O)O [Rosmarinic Acid] | 46.31% and 76.08% and 69.63% |  |  |
| C[n+]1cc2c3c(ccc2c2ccc4cc5c(cc4c21)OCO5)OCO3 [Sanguinarine chloride] | 108.15% | 108% |  |
| O=c1cc(-c2ccc(O)cc2)oc2cc(O)c(O)c(O)c12 [Scutellarein] | 85.01% and 83.89% | 84.1% |  |
| O=C(OC[C@H]1O[C@@H](OC(=O)c2cc(O)c(O)c(OC(=O)c3cc(O)c(O)c(O)c3)c2)[C@H](OC(=O)c2cc(O)c(O)c(OC(=O)c3cc(O)c(O)c(O)c3)c2)[C@@H](OC(=O)c2cc(O)c(O)c(OC(=O)c3cc(O)c(O)c(O)c3)c2)[C@@H]1OC(=O)c1cc(O)c(O)c(OC(=O)c2cc(O)c(O)c(O)c2)c1)c1cc(O)c(O)c(OC(=O)c2cc(O)c(O)c(O)c2)c1 [Tannic Acid] | 88.66% and 87.66% | 89.6% |  |
| C[C@@H]1CC[C@]2(C(=O)O)CC[C@]3(C)C(=CC[C@@H]4[C@@]5(C)CC[C@H](O[C@@H]6OC[C@H](O)[C@H](O)[C@H]6O)C(C)(C)[C@@H]5CC[C@]43C)[C@@H]2[C@]1(C)O [Ziyuglycoside II] | 70.21% and 74.61% and 47.27% |  |  |
| O=c1cc(-c2ccccc2)oc2cc(O)c(O)c(O)c12 [baicalein, Baicalein, reference compound] |  |  | inhibition at 80 µM ([1]; 80 μM compound, first value column of Table S2): 99.9%; inhibition at 80 µM ([1]; 80 μM compound, second value column of Table S2): 101%; inhibition at 80 µM ([1]; 80 μM compound, third value column of Table S2): 98.7%; Tm of M^pro ([2]; compound 3.125 μM): 55.2 °C; △T ([2]; compound 3.125 μM): 0.3 °C; Tm of M^pro ([2]; compound 50 μM): 56.6 °C; △T ([2]; compound 50 μM): 1.7 °C; Tm of M^pro ([2]; compound 200 μM): 57.0 °C; △T ([2]; compound 200 μM): 2.1 °C |
| CC(C)CCCC(C)C1CCC2C3CC=C4CC(OS(=O)(=O)O)CCC4(C)C3CCC12C (stereo not shown) [cholesteryl sodium sulfate, Cholesteryl sodium sulfate] | 100.30% and 100.48% | 100% | IC50 ([1]; Without Triton X−100): 2740 ± 234 nM; Tm of M^pro ([2]; compound 3.125 μM): 55.0 °C; △T ([2]; compound 3.125 μM): 0.1 °C; Tm of M^pro ([2]; compound 50 μM): 54.1 °C; △T ([2]; compound 50 μM): -0.8 °C; Tm of M^pro ([2]; compound 200 μM): 48.9 °C; △T ([2]; compound 200 μM): -6.0 °C; Kd [2]: 7600 nM |
| CC(C)=CCC/C(C)=C/Cc1cc(-c2coc3cc(O)ccc3c2=O)ccc1O [corylifol A, Corylifol A] | 100.01% and 99.99% | 100% | result of retest over a concentration range [1]: unable to generate a whole curve within the concentration range |
| COc1cc2ccc(=O)oc2c(O)c1O [fraxetin, Fraxetin] | 97.85% and 96.97% | 96.8% | IC50 [1, 4]: 1300 ± 208 nM; IC50 ([1]; Without Triton X−100): 2490 ± 178 nM; binding trend to M^pro ([3]; SPR, single concentration 200 μM): no binding trends |
| CCCCCC/C=C\CCCCCCCc1cccc(O)c1C(=O)O [ginkgolic acid C15:1, Ginkgolic Acid C15:1] | 107.06% | 104% | IC50 ([1]; Without Triton X−100): 9350 ± 531 nM; Kd ([3]; SPR multi-cycle mode, steady-state affinity, PBST, 7% DMSO): 227000 nM |
| Oc1cc2c(cc1O)[C@@H]1c3ccc(O)c(O)c3OC[C@]1(O)C2 [hematoxylin, Hematoxylin] | 103.56% and 103.03% | 104% |  |
| Cc1c(=O)c(=O)c2c3c[nH]c4c(C)c(=O)c(=O)c(c5c[nH]c1c52)c43 [melanin, Melanin] | 96.84% and 96.92% | 95.8% | IC50 ([1]; Without Triton X−100): 7370 ± 368 nM; Tm of M^pro ([2]; compound 3.125 μM): 55.0 °C; △T ([2]; compound 3.125 μM): 0.1 °C; Tm of M^pro ([2]; compound 50 μM): 54.9 °C; △T ([2]; compound 50 μM): 0.0 °C; Tm of M^pro ([2]; compound 200 μM): 54.4 °C; △T ([2]; compound 200 μM): -0.5 °C; Kd [2]: 11600 nM |
| C[n+]1cc2c3c(ccc2c2ccc4cc5c(cc4c21)OCO5)OCO3 [sanguinarine, Sanguinarine] | 107.86% and 107.40% and 108.34% |  | result of retest over a concentration range [1]: no inhibitory effect on M^pro when retested |
| COc1cc(O)c2c(c1)oc(=O)c1c3cc(O)c(O)cc3oc21 [wedelolactone, Wedelolactone] | 101.88% and 102.36% | 102% | IC50 [1, 4]: 2510 ± 276 nM; IC50 ([1]; Without Triton X−100): 1000 ± 238 nM; Tm of M^pro ([2]; compound 3.125 μM): 55.2 °C; △T ([2]; compound 3.125 μM): 0.3 °C; Tm of M^pro ([2]; compound 50 μM): 55.8 °C; △T ([2]; compound 50 μM): 0.9 °C; Tm of M^pro ([2]; compound 200 μM): 56.1 °C; △T ([2]; compound 200 μM): 1.2 °C; Kd [2]: 977 nM |
| CC(C)=CCC(OC(=O)C=C(C)C)C1=CC(=O)c2c(O)ccc(O)c2C1=O (stereo not drawn) [β,β-dimethylacrylshikonin] | 75.31% and 77.34% and 77.10% |  |  |
| CC(C)=CC[C@H](OC(=O)C=C(C)C)C1=CC(=O)c2c(O)ccc(O)c2C1=O [β,β–dimethylacrylalkannin, β,β-Dimethylacrylalkannin] | 99.09% and 97.96% | 100% | IC50 [1, 4]: 2890 ± 185 nM; IC50 ([1]; Without Triton X−100): 2730 ± 308 nM; Tm of M^pro ([2]; compound 50 μM): 57.7 °C; △T ([2]; compound 50 μM): 2.8 °C; Tm of M^pro ([2]; compound 200 μM): 58.3 °C; △T ([2]; compound 200 μM): 3.4 °C; Kd [2]: 1900 nM |
| (-)-Epigallocatechin | 78.95% and 75.28% and 77.55% |  |  |
| Echinacoside | 93.62% and 90.06% and 89.84% |  |  |
| Forsythoside B | 92.91% and 95.11% and 93.46% |  |  |
| Harmol | 74.50% and 81.33% and 79.31% |  |  |
| Maleimide | 103.98% and 104.37% and 103.27% |  |  |
| Tubuloside A | 87.62% and 90.37% and 86.87% |  |  |

From article PMC10222270, “Natural Product-Based Screening for Lead Compounds Targeting SARS CoV-2 M^pro” (Pharmaceuticals, 2023)
